Data: patent US9073940B2, “Tricyclic pyrazol amine derivatives” (MERCK SERONO SA, priority 2009, dated 2015)

These molecules were tested on 4 PI3K isoforms (Human recombinant GST-PI3K) (assay: PI3K scintillation proximity assay, best IC50 obtained with the four isoforms (alpha, beta, delta, gamma)). Details: best IC50 obtained with the four isoforms of PI3K; read-out: Best potency measured on the 4 PI3K isoforms.
Format: biochemical

SMILES | IC50 [nM]
COc1ccc(-n2nc(C(=O)N3CCOCC3)c3c2-c2ccccc2S(=O)(=O)C3)cc1 [Example 10, 1-(4-methoxyphenyl)-3-(morpholin-4-ylcarbonyl)-1,4-dihydrothiochromeno[4,3-c]pyrazole 5,5-dioxide] | 749
Cn1nc(C(=O)N2CCOCC2)c2c1-c1cccc(F)c1S(=O)(=O)C2 [Example 14, 6-fluoro-1-methyl-3-(morpholin-4-ylcarbonyl)-1,4-dihydrothiochromeno[4,3-c]pyrazole 5,5-dioxide] | 687
Cn1nc(C(=O)N2CCOCC2)c2c1-c1cc(F)ccc1S(=O)(=O)C2 [Example 16, 8-fluoro-1-methyl-3-(morpholin-4-ylcarbonyl)-1,4-dihydrothiochromeno[4,3-c]pyrazole 5,5-dioxide] | 2220
O=C(c1nn(-c2ccccc2)c2c1CS(=O)(=O)c1ccc(F)cc1-2)N1CCOCC1 [Example 17, 8-fluoro-3-(morpholin-4-ylcarbonyl)-1-phenyl-1,4-dihydrothiochromeno[4,3-c]pyrazole 5,5-dioxide] | 987
O=C(c1nn(-c2ccccc2Br)c2c1CS(=O)(=O)c1ccccc1-2)N1CCOCC1 [Example 20, 1-(2-bromophenyl)-3-(morpholin-4-ylcarbonyl)-1,4-dihydrothiochromeno[4,3-c]pyrazole 5,5-dioxide] | 5500
O=C(c1nn(-c2ccccc2F)c2c1CS(=O)(=O)c1ccccc1-2)N1CCOCC1 [Example 21, 1-(2-fluorophenyl)-3-(morpholin-4-ylcarbonyl)-1,4-dihydrothiochromeno[4,3-c]pyrazole 5,5-dioxide] | 2000
O=C(c1nn(-c2ccccc2Cl)c2c1CS(=O)(=O)c1ccccc1-2)N1CCOCC1 [Example 22, 1-(2-chlorophenyl)-3-(morpholin-4-ylcarbonyl)-1,4-dihydrothiochromeno[4,3-c]pyrazole 5,5-dioxide] | 4020
O=C(c1nn(-c2ccc(Br)cc2)c2c1CS(=O)(=O)c1ccccc1-2)N1CCOCC1 [Example 27, 1-(4-bromophenyl)-3-(morpholin-4-ylcarbonyl)-1,4-dihydrothiochromeno[4,3-c]pyrazole 5,5-dioxide] | 1120
O=C(c1nn(-c2ccc(Cl)cc2)c2c1CS(=O)(=O)c1ccccc1-2)N1CCOCC1 [Example 29, 1-(4-chlorophenyl)-3-(morpholin-4-ylcarbonyl)-1,4-dihydrothiochromeno[4,3-c]pyrazole 5,5-dioxide] | 895
CC(C)c1ccc(-n2nc(C(=O)N3CCOCC3)c3c2-c2ccccc2S(=O)(=O)C3)cc1 [Example 30, 1-(4-isopropylphenyl)-3-(morpholin-4-ylcarbonyl)-1,4-dihydrothiochromeno[4,3-c]pyrazole 5,5-dioxide] | 1470
O=C(c1nn(C2CCOCC2)c2c1CS(=O)(=O)c1ccccc1-2)N1CCOCC1 [Example 32, 3-(morpholin-4-ylcarbonyl)-1-(tetrahydro-2H-pyran-4-yl)-1,4-dihydrothiochromeno[4,3-c]pyrazole 5,5-dioxide] | 223
O=C(c1nn(-c2ccccc2)c2c1CS(=O)(=O)c1ccc([N+](=O)[O-])cc1-2)N1CCOCC1 [Example 36, 3-(morpholin-4-ylcarbonyl)-8-nitro-1-phenyl-1,4-dihydrothiochromeno[4,3-c]pyrazole 5,5-dioxide] | 1830
O=C(c1nn(Cc2ccccc2)c2c1CS(=O)(=O)c1ccccc1-2)N1CCOCC1 [Example 40, 1-benzyl-3-(morpholin-4-ylcarbonyl)-1,4-dihydrothiochromeno[4,3-c]pyrazole 5,5-dioxide] | 1190
COCCCn1nc(C(=O)N2CCOCC2)c2c1-c1ccccc1S(=O)(=O)C2 [Example 44, 1-(3-methoxypropyl)-3-(morpholin-4-ylcarbonyl)-1,4-dihydrothiochromeno[4,3-c]pyrazole 5,5-dioxide] | 907
O=C(c1nn(CC2CCCO2)c2c1CS(=O)(=O)c1ccccc1-2)N1CCOCC1 (stereo not shown) [Example 45, 3-(morpholin-4-ylcarbonyl)-1-(tetrahydrofuran-2-ylmethyl)-1,4-dihydrothiochromeno[4,3-c]pyrazole 5,5-dioxide] | 1560
O=C(c1nn(Cc2ccccn2)c2c1CS(=O)(=O)c1ccccc1-2)N1CCOCC1 [Example 47, 3-(morpholin-4-ylcarbonyl)-1-(pyridin-2-ylmethyl)-1,4-dihydrothiochromeno[4,3-c]pyrazole 5,5-dioxide] | 3960
CC(C)Cn1nc(C(=O)N2CCOCC2)c2c1-c1ccccc1S(=O)(=O)C2 [Example 50, 1-isobutyl-3-(morpholin-4-ylcarbonyl)-1,4-dihydrothiochromeno[4,3-c]pyrazole 5,5-dioxide] | 960
O=C(c1nn(CC2CCCCC2)c2c1CS(=O)(=O)c1ccccc1-2)N1CCOCC1 [Example 51, 1-(cyclohexylmethyl)-3-(morpholin-4-ylcarbonyl)-1,4-dihydrothiochromeno[4,3-c]pyrazole 5,5-dioxide] | 509
O=C(c1nn(CC2CCOCC2)c2c1CS(=O)(=O)c1ccccc1-2)N1CCOCC1 [Example 52, 3-(morpholin-4-ylcarbonyl)-1-(tetrahydro-2H-pyran-4-ylmethyl)-1,4-dihydrothiochromeno[4,3-c]pyrazole 5,5-dioxide] | 789
COCCn1nc(C(=O)N2CCOCC2)c2c1-c1ccccc1S(=O)(=O)C2 [Example 53, 1-(2-methoxyethyl)-3-(morpholin-4-ylcarbonyl)-1,4-dihydrothiochromeno[4,3-c]pyrazole 5,5-dioxide] | 1290
O=C(c1nn(-c2ccccc2)c2c1C(CC1CC1)S(=O)(=O)c1ccccc1-2)N1CCOCC1 (stereo not shown) [Example 58, 4-(cyclopropylmethyl)-3-(morpholin-4-ylcarbonyl)-1-phenyl-1,4-dihydrothiochromeno[4,3-c]pyrazole 5,5-dioxide] | 3900

The remaining molecules from weak to strong by IC50, led by results:

IC50 [nM] | SMILES
4040 | Cc1ccncc1-n1nc(C(=O)N2CCOCC2)c2c1-c1ccccc1S(=O)(=O)C2 [Example 31, 1-(4-methylpyridin-3-yl)-3-(morpholin-4-ylcarbonyl)-1,4-dihydrothiochromeno[4,3-c]pyrazole 5,5-dioxide]
2770 | Cn1nc(C(=O)N2CCOCC2)c2c1-c1cc([N+](=O)[O-])ccc1S(=O)(=O)C2 [Example 35, 1-methyl-3-(morpholin-4-ylcarbonyl)-8-nitro-1,4-dihydrothiochromeno[4,3-c]pyrazole 5,5-dioxide]
2480 | O=C(c1nn(-c2ccccc2)c2c1C(Cc1ccccc1)S(=O)(=O)c1ccccc1-2)N1CCOCC1 (stereo not shown) [Example 57, 4-benzyl-3-(morpholin-4-ylcarbonyl)-1-phenyl-1,4-dihydrothiochromeno[4,3-c]pyrazole 5,5-dioxide]
2280 | Cc1ccccc1-n1nc(C(=O)N2CCOCC2)c2c1-c1ccccc1S(=O)(=O)C2 [Example 19, 1-(2-methylphenyl)-3-(morpholin-4-ylcarbonyl)-1,4-dihydrothiochromeno[4,3-c]pyrazole 5,5-dioxide]
2250 | O=C(c1nn(CCCO)c2c1CS(=O)(=O)c1ccccc1-2)N1CCOCC1 [Example 54, 3-[3-(morpholin-4-ylcarbonyl)-5,5-dioxidothiochromeno[4,3-c]pyrazol-1(4H)-yl]propan-1-ol]
1920 | O=C(c1nn(CCc2ccccn2)c2c1CS(=O)(=O)c1ccccc1-2)N1CCOCC1 [Example 55, 3-(morpholin-4-ylcarbonyl)-1-(2-pyridin-2-ylethyl)-1,4-dihydrothiochromeno[4,3-c]pyrazole 5,5-dioxide]
1600 | O=C(c1nn(-c2ccccn2)c2c1CS(=O)(=O)c1ccccc1-2)N1CCOCC1 [Example 11, 3-(morpholin-4-ylcarbonyl)-1-pyridin-2-yl-1,4-dihydrothiochromeno[4,3-c]pyrazole 5,5-dioxide]
1500 | CN(C)CCn1nc(C(=O)N2CCOCC2)c2c1-c1ccccc1S(=O)(=O)C2 [Example 42, N,N-dimethyl-2-[3-(morpholin-4-ylcarbonyl)-5,5-dioxidothiochromeno[4,3-c]pyrazol-1(4H)-yl]ethanamine]
1440 | O=C(c1nn(CCc2ccccc2)c2c1CS(=O)(=O)c1ccccc1-2)N1CCOCC1 [Example 41, 3-(morpholin-4-ylcarbonyl)-1-(2-phenylethyl)-1,4-dihydrothiochromeno[4,3-c]pyrazole 5,5-dioxide]
1320 | COc1cccc(-n2nc(C(=O)N3CCOCC3)c3c2-c2ccccc2S(=O)(=O)C3)c1 [Example 9, 1-(3-methoxyphenyl)-3-(morpholin-4-ylcarbonyl)-1,4-dihydrothiochromeno[4,3-c]pyrazole 5,5-dioxide]
670 | O=C(c1nn(-c2ccc3c(c2)OCCO3)c2c1CS(=O)(=O)c1ccccc1-2)N1CCOCC1 [Example 23, 1-(2,3-dihydro-1,4-benzodioxin-6-yl)-3-(morpholin-4-ylcarbonyl)-1,4-dihydrothiochromeno[4,3-c]pyrazole 5,5-dioxide]
662 | Cc1nc2ccc(-n3nc(C(=O)N4CCOCC4)c4c3-c3ccccc3S(=O)(=O)C4)cc2s1 [Example 24, 1-(2-methyl-1,3-benzothiazol-6-yl)-3-(morpholin-4-ylcarbonyl)-1,4-dihydrothiochromeno[4,3-c]pyrazole 5,5-dioxide]
616 | O=C(c1nn(-c2cccc(Br)c2)c2c1CS(=O)(=O)c1ccccc1-2)N1CCOCC1 [Example 25, 1-(3-bromophenyl)-3-(morpholin-4-ylcarbonyl)-1,4-dihydrothiochromeno[4,3-c]pyrazole 5,5-dioxide]
494 | O=C(c1nn(-c2ccccc2)c2c1CS(=O)(=O)c1c(Br)cccc1-2)N1CCOCC1 [Example 18]
440 | O=C(c1nn(-c2cccc(Cl)c2)c2c1CS(=O)(=O)c1ccccc1-2)N1CCOCC1 [Example 26, 1-(3-chlorophenyl)-3-(morpholin-4-ylcarbonyl)-1,4-dihydrothiochromeno[4,3-c]pyrazole 5,5-dioxide]
373 | O=C(c1nn(-c2ccc(F)cc2)c2c1CS(=O)(=O)c1ccccc1-2)N1CCOCC1 [Example 28, 1-(4-fluorophenyl)-3-(morpholin-4-ylcarbonyl)-1,4-dihydrothiochromeno[4,3-c]pyrazole 5,5-dioxide]
